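Method: 48-hour compound exposure of cells in 96-well plates, five concentrations, linear interpolation of endpoints. GI50 is the concentration that inhibits growth by half. Definition used: TGI = concentration required for complete inhibition of growth.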
What was measured:
Assay in all cases: NCI tumour cell line growth inhibition, 48 h
[1] = system: 786-0 renal
[2] = system: A498 renal
[3] = system: A549 NSCLC
[4] = system: ACHN renal
[5] = system: BT-549 breast
[6] = system: CAKI-1 renal
[7] = system: CCRF-CEM leukemia
[8] = system: COLO 205 colon
[9] = system: DU-145 prostate
[10] = system: EKVX NSCLC
[11] = system: HCC-2998 colon
[12] = system: HCT-116 colon
[13] = system: HCT-15 colon
[14] = system: HL-60(TB) leukemia
[15] = system: HOP-62 NSCLC
[16] = system: HOP-92 NSCLC
[17] = system: HS 578T breast
[18] = system: HT29 colon
[19] = system: IGROV1 ovarian
[20] = system: K-562 leukemia
[21] = system: KM12 colon
[22] = system: LOX IMVI melanoma
[23] = system: M14 melanoma
[24] = system: MALME-3M melanoma
[25] = system: MCF7 breast
[26] = system: MDA-MB-231 breast
[27] = system: MDA-MB-435
[28] = system: MOLT-4 leukemia
[29] = system: NCI-H226 lung
[30] = system: NCI-H23 lung
[31] = system: NCI-H460 lung
[32] = system: NCI-H522 lung
[33] = system: NCI/ADR-RES ovarian
[34] = system: OVCAR-3 ovarian
[35] = system: OVCAR-4 ovarian
[36] = system: OVCAR-5 ovarian
[37] = system: OVCAR-8 ovarian
[38] = system: PC-3 prostate
[39] = system: RPMI-8226 leukemia
[40] = system: RXF 393 renal
[41] = system: SF-268 CNS
[42] = system: SF-295 CNS
[43] = system: SF-539 CNS
[44] = system: SK-MEL-2 melanoma
[45] = system: SK-MEL-28 melanoma
[46] = system: SK-MEL-5 melanoma
[47] = system: SK-OV-3 ovarian
[48] = system: SN12C renal
[49] = system: SNB-19 CNS
[50] = system: SNB-75 CNS
[51] = system: SR leukemia
[52] = system: SW-620 colon
[53] = system: T-47D breast
[54] = system: TK-10 renal
[55] = system: U251 CNS
[56] = system: UACC-257 melanoma
[57] = system: UACC-62 melanoma
[58] = system: UO-31 renal

## CCCn1cnc2c(c1=N)C(c1ccc(F)cc1)c1sc3c(C)cccc3c1O2 (stereo unspecified)
[1]
  GI50: 1.08 µM
  TGI: 14.5 µM
[2]
  GI50: 0.584 µM
  TGI: 3.95 µM
[3]
  GI50: 2.15 µM
  TGI: > 48.8 µM
[4]
  GI50: 1.45 µM
  TGI: 16.1 µM
[5]
  GI50: 5.84 µM
  TGI: 22.8 µM
[6]
  GI50: 0.546 µM
  TGI: > 39.5 µM
[7]
  GI50: 1.03 µM
  TGI: > 43.8 µM
[8]
  GI50: 2.6 µM
  TGI: 8.22 µM
[9]
  GI50: 3.34 µM
  TGI: 29.5 µM
[10]
  GI50: 3.7 µM
  TGI: 27.6 µM
[11]
  GI50: 2.01 µM
  TGI: 6.08 µM
[12]
  GI50: 0.467 µM
  TGI: 11.8 µM
[13]
  GI50: 1.05 µM
  TGI: 12.7 µM
[14]
  GI50: 1.48 µM
  TGI: 7.87 µM
[15]
  GI50: 2.08 µM
  TGI: 31.1 µM
[16]
  GI50: 0.458 µM
  TGI: 7.5 µM
[17]
  GI50: 0.961 µM
  TGI: 14.3 µM
[18]
  GI50: 3.16 µM
  TGI: 12.8 µM
[19]
  GI50: 1.23 µM
  TGI: 13.1 µM
[20]
  GI50: 0.358 µM
  TGI: 22.6 µM
[21]
  GI50: 1.63 µM
  TGI: > 36.3 µM
[22]
  GI50: 0.962 µM
  TGI: 13.2 µM
[23]
  GI50: 0.637 µM
  TGI: 11.3 µM
[24]
  GI50: 2.66 µM
  TGI: 24.2 µM
[25]
  GI50: 0.351 µM
  TGI: 13.8 µM
[26]
  GI50: 3.09 µM
  TGI: 15.7 µM
[27]
  GI50: 0.328 µM
  TGI: 1.27 µM
[28]
  GI50: 3.48 µM
  TGI: > 54.2 µM
[29]
  GI50: 2.87 µM
  TGI: 15.1 µM
[30]
  GI50: 1.62 µM
  TGI: 10.9 µM
[31]
  GI50: 1.05 µM
  TGI: 11.5 µM
[32]
  GI50: 0.4 µM
  TGI: 12.1 µM
[33]
  GI50: 0.425 µM
  TGI: 6.99 µM
[34]
  GI50: 0.815 µM
  TGI: 10.6 µM
[35]
  GI50: 2.79 µM
  TGI: > 42.5 µM
[36]
  GI50: 3.66 µM
  TGI: 18.4 µM
[37]
  GI50: 3.79 µM
  TGI: 31 µM
[38]
  GI50: 0.638 µM
  TGI: 15.2 µM
[39]
  GI50: 0.961 µM
  TGI: 7.91 µM
[40]
  GI50: 0.227 µM
  TGI: 0.741 µM
[41]
  GI50: 2.71 µM
  TGI: 21.9 µM
[42]
  GI50: 0.581 µM
  TGI: 11 µM
[43]
  GI50: 1.16 µM
  TGI: 5.07 µM
[44]
  GI50: 5.41 µM
  TGI: 30.1 µM
[45]
  GI50: 5.79 µM
  TGI: 22.7 µM
[46]
  GI50: 1.25 µM
  TGI: 11.9 µM
[47]
  GI50: 2.23 µM
  TGI: 38.8 µM
[48]
  GI50: 2.94 µM
  TGI: 14.9 µM
[49]
  GI50: 2.4 µM
  TGI: 18.4 µM
[50]
  GI50: 0.321 µM
  TGI: 13.8 µM
[51]
  GI50: 0.648 µM
  TGI: 15.6 µM
[52]
  GI50: 1.32 µM
  TGI: 18.8 µM
[53]
  GI50: 1.97 µM
  TGI: 41.9 µM
[54]
  GI50: 16.1 µM
  TGI: 61.5 µM
[55]
  GI50: 2.07 µM
  TGI: 18.1 µM
[56]
  GI50: 15.6 µM
  TGI: 39.5 µM
[57]
  GI50: 0.443 µM
  TGI: 13.8 µM
[58]
  GI50: 0.662 µM
  TGI: 15.1 µM

— PubChem BioAssay (NCI)
